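Results reflect a 48-hour exposure of cells in 96-well plates to compound at five concentrations. Here, GI50 denotes the concentration required for 50% inhibition of growth.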 Activity calls are given as the source filed them. Cut-off read from the data, not from the text of the source: active = GI50 up to about 1.1 µM and inactive = higher.
Columns and labels:
Experiment in all cases: inhibition of tumour cell growth, NCI panel, 48 h
SK-MEL-5 = tested on: SK-MEL-5
UACC-257 = tested on: UACC-257
ACHN = tested on: ACHN
CAKI-1 = tested on: CAKI-1
UO-31 = tested on: UO-31
SF-539 = tested on: SF-539
SNB-19 = tested on: SNB-19
PC-3 = tested on: PC-3
MOLT-4 = tested on: MOLT-4
OVCAR-4 = tested on: OVCAR-4
SK-MEL-28 = tested on: SK-MEL-28
RXF 393 = tested on: RXF 393
NCI-H226 = tested on: NCI-H226
COLO 205 = tested on: COLO 205
NCI-H460 = tested on: NCI-H460
KM12 = tested on: KM12
OVCAR-3 = tested on: OVCAR-3
MDA-MB-435 = tested on: MDA-MB-435
SNB-75 = tested on: SNB-75
HL-60 = tested on: HL-60

Row | Compound | GI50 (SK-MEL-5) | GI50 (UACC-257) | GI50 (ACHN) | GI50 (CAKI-1) | GI50 (UO-31) | GI50 (SF-539) | GI50 (SNB-19) | GI50 (PC-3) | GI50 (MOLT-4) | GI50 (OVCAR-4) | GI50 (SK-MEL-28) | GI50 (RXF 393) | GI50 (NCI-H226) | GI50 (COLO 205) | GI50 (NCI-H460) | GI50 (KM12) | GI50 (OVCAR-3) | GI50 (MDA-MB-435) | GI50 (SNB-75) | GI50 (HL-60)
1 | Nc1ncnc2c1ncn2[C@@H]1O[C@H](COP(=O)(O)OP(=O)(O)OC[C@H]2O[C@@H](OCCCO)[C@H](O)[C@@H]2O)[C@@H](O)[C@H]1O | > 100 µM (inactive) | > 100 µM (inactive) | > 100 µM (inactive) | 85.9 µM (inactive) | > 100 µM (inactive) | > 100 µM (inactive) | 76.6 µM (inactive) | > 100 µM (inactive) | > 100 µM (inactive) | > 100 µM (inactive) | > 100 µM (inactive) | > 100 µM (inactive) | > 100 µM (inactive) | > 100 µM (inactive) | 34.6 µM (inactive) | 63.5 µM (inactive) | > 100 µM (inactive) | > 100 µM (inactive) | > 100 µM (inactive) | > 100 µM (inactive)
2 | CC(=O)OCC12C(OC(C)=O)C(=O)C3C(OC(C)=O)C14OC3(C)COC(=O)c1cccnc1C(C)C(C)C(=O)OC(C(OC(C)=O)C2OC(C)=O)C4(C)O (stereo not given) | > 100 µM (inactive) | > 100 µM (inactive) | > 100 µM (inactive) | > 100 µM (inactive) | > 100 µM (inactive) | > 100 µM (inactive) | > 100 µM (inactive) | > 100 µM (inactive) | 52.2 µM (inactive) | > 100 µM (inactive) | > 100 µM (inactive) | > 100 µM (inactive) | > 100 µM (inactive) | > 100 µM (inactive) | > 100 µM (inactive) | > 100 µM (inactive) | > 100 µM (inactive) | > 100 µM (inactive) | > 100 µM (inactive) | > 100 µM (inactive)
3 | CCC/C(Cl)=N\OC(=O)Nc1ccc(Br)cc1 | 14.6 µM (inactive) | 13.5 µM (inactive) | 5.05 µM (inactive) | 4.36 µM (inactive) | 13 µM (inactive) | 17.5 µM (inactive) | 29.5 µM (inactive) | 14.7 µM (inactive) | 2.55 µM (inactive) | 21.5 µM (inactive) | 18.2 µM (inactive) | 16.6 µM (inactive) | 21.6 µM (inactive) | 2.73 µM (inactive) | 16.5 µM (inactive) | 10.8 µM (inactive) | 6.22 µM (inactive) | 14.5 µM (inactive) | 13.5 µM (inactive) | 1.99 µM (inactive)
4 | O=C(c1ccccc1)N(C(=O)c1ccccc1)c1nc(SCc2ccccc2)ns1 | 16.2 µM (inactive) | 22.2 µM (inactive) | 41.6 µM (inactive) | 38.2 µM (inactive) | 6.11 µM (inactive) | 22.3 µM (inactive) | 50.6 µM (inactive) | 28.2 µM (inactive) | 25.4 µM (inactive) | 39.9 µM (inactive) | 30.8 µM (inactive) | 31.7 µM (inactive) | 28.6 µM (inactive) | 18.7 µM (inactive) | 21.1 µM (inactive) | 34 µM (inactive) | 22.3 µM (inactive) | 29.4 µM (inactive) | 22.6 µM (inactive) | 21.8 µM (inactive)
5 | NCc1ccc(O)c(O)c1O | 21.7 µM (inactive) | 30.8 µM (inactive) | 23.4 µM (inactive) | 29.3 µM (inactive) | 59.7 µM (inactive) | 27.1 µM (inactive) | 54.5 µM (inactive) | 33 µM (inactive) | 28.4 µM (inactive) | 26.1 µM (inactive) | 62.5 µM (inactive) | 40.7 µM (inactive) | > 46.8 µM (inactive) | 19.2 µM (inactive) | 18.5 µM (inactive) | 24.3 µM (inactive) | 22.1 µM (inactive) | 18 µM (inactive) | 26.4 µM (inactive) | 30.3 µM (inactive)
6 | COc1ccc2c(=O)c3cc([N+](=O)[O-])ccc3n(C)c2c1 | > 100 µM (inactive) | > 100 µM (inactive) | > 100 µM (inactive) | > 100 µM (inactive) | > 100 µM (inactive) | > 100 µM (inactive) | > 100 µM (inactive) | > 100 µM (inactive) | > 100 µM (inactive) | > 100 µM (inactive) | > 100 µM (inactive) | > 100 µM (inactive) | > 100 µM (inactive) | > 100 µM (inactive) | > 100 µM (inactive) | > 100 µM (inactive) | > 100 µM (inactive) | > 100 µM (inactive) | > 100 µM (inactive) | > 100 µM (inactive)
7 | O=C(Cc1ccc(OCc2cccc(Cl)c2)cc1)NO | 33.3 µM (inactive) | 53.5 µM (inactive) | 25.2 µM (inactive) | 19.9 µM (inactive) | 12.8 µM (inactive) | 29.6 µM (inactive) | 37.2 µM (inactive) | 9.18 µM (inactive) | 2.98 µM (inactive) | 15.3 µM (inactive) | 32.9 µM (inactive) | 26 µM (inactive) | 19.4 µM (inactive) | 25 µM (inactive) | 23.1 µM (inactive) | 27.6 µM (inactive) | 22.2 µM (inactive) | 41.8 µM (inactive) | 25.8 µM (inactive) | 12.1 µM (inactive)
8 | CC(/C=N/N(C)C1=NCCCN1)=N/N(C)C1=NCCCN1 | > 100 µM (inactive) | > 100 µM (inactive) | > 100 µM (inactive) | > 100 µM (inactive) | > 100 µM (inactive) | > 100 µM (inactive) | > 100 µM (inactive) | > 100 µM (inactive) | > 100 µM (inactive) | > 100 µM (inactive) | > 100 µM (inactive) | > 100 µM (inactive) | > 100 µM (inactive) | > 100 µM (inactive) | > 100 µM (inactive) | > 100 µM (inactive) | > 100 µM (inactive) | > 100 µM (inactive) | > 100 µM (inactive) | > 100 µM (inactive)
9 | O=C(ON=C1c2ccccc2C(Br)C(Br)c2ccccc21)c1ccccc1 (stereo not given) | 17.1 µM (inactive) | 15.6 µM (inactive) | 17.7 µM (inactive) | 9.48 µM (inactive) | 3.79 µM (inactive) | 7.01 µM (inactive) | 20.7 µM (inactive) | 19.8 µM (inactive) | 2.04 µM (inactive) | 13.2 µM (inactive) | 18.2 µM (inactive) | 14.1 µM (inactive) | 18 µM (inactive) | 15.8 µM (inactive) | 13.4 µM (inactive) | 17.9 µM (inactive) | 14.8 µM (inactive) | 17.3 µM (inactive) | 21.6 µM (inactive) | 0.59 µM (active)
10 | C[N+]12CCCCC1C(CN1C(=O)Cc3c4ccccc4c(c4ccccc34)CC1=O)CCC2 (stereo not given) | > 100 µM (inactive) | > 100 µM (inactive) | > 100 µM (inactive) | > 100 µM (inactive) | > 100 µM (inactive) | > 100 µM (inactive) | > 100 µM (inactive) | > 100 µM (inactive) | > 100 µM (inactive) | > 100 µM (inactive) | > 100 µM (inactive) | > 100 µM (inactive) | > 100 µM (inactive) | > 100 µM (inactive) | > 100 µM (inactive) | > 100 µM (inactive) | > 100 µM (inactive) | > 100 µM (inactive) | > 100 µM (inactive) | > 100 µM (inactive)
11 | CC1=NN(c2ccccc2)C(=O)C1/N=N/c1ccc([As](=O)(O)O)c(O)c1 (stereo not given) | > 100 µM (inactive) | > 100 µM (inactive) | > 100 µM (inactive) | > 100 µM (inactive) | > 100 µM (inactive) | > 100 µM (inactive) | > 100 µM (inactive) | > 100 µM (inactive) | > 100 µM (inactive) | > 100 µM (inactive) | > 100 µM (inactive) | > 100 µM (inactive) | > 100 µM (inactive) | > 100 µM (inactive) | > 100 µM (inactive) | > 100 µM (inactive) | > 100 µM (inactive) | > 100 µM (inactive) | > 100 µM (inactive) | 87.1 µM (inactive)
12 | CN(C)Cc1cc(C(=O)/C=C/c2ccc(Cl)c(Cl)c2)cc(CN(C)C)c1O | 1.6 µM (inactive) | 2.31 µM (inactive) | 1.67 µM (inactive) | 1.13 µM (inactive) | 1.83 µM (inactive) | 2.77 µM (inactive) | 2.56 µM (inactive) | 1.96 µM (inactive) | 3.18 µM (inactive) | 4.61 µM (inactive) | 2.57 µM (inactive) | 2.48 µM (inactive) | 3.77 µM (inactive) | 1.29 µM (inactive) | 2.12 µM (inactive) | 1.82 µM (inactive) | 1.59 µM (inactive) | 3.26 µM (inactive) | 2.07 µM (inactive) | 0.826 µM (active)
13 | CC(=O)/C=C/C=C(\C)CC/C=C(\C)CC(C)C | 18.5 µM (inactive) | 23.3 µM (inactive) | 29.9 µM (inactive) | 40.8 µM (inactive) | 76.6 µM (inactive) | 21.7 µM (inactive) | 42.4 µM (inactive) | 38.2 µM (inactive) | 18.1 µM (inactive) | 42.1 µM (inactive) | 33.9 µM (inactive) | 16.2 µM (inactive) | 26.9 µM (inactive) | 20.2 µM (inactive) | 29.9 µM (inactive) | 27.7 µM (inactive) | 26.4 µM (inactive) | 27.9 µM (inactive) | 35.2 µM (inactive) | 13 µM (inactive)
14 | O=C1N/C(=N/N=C/c2ccccc2)N/C1=C\c1cccs1 | 7.53 µM (inactive) | 30.5 µM (inactive) | 15.9 µM (inactive) | 16.7 µM (inactive) | 21.8 µM (inactive) | 10.4 µM (inactive) | 21.9 µM (inactive) | 10 µM (inactive) | 27.5 µM (inactive) | 22.3 µM (inactive) | 15.8 µM (inactive) | 17.7 µM (inactive) | 10.6 µM (inactive) | 8.13 µM (inactive) | 31.8 µM (inactive) | 18.4 µM (inactive) | 15.4 µM (inactive) | 7.52 µM (inactive) | 22 µM (inactive) | 12.3 µM (inactive)
